pIC50: −log10 of the molar value. “Also recorded” adds a separate entry of the source.
Columns and labels:
ERK [1] = assay: ERK activation in NS20Y neuroblastoma cells, immunoblotting for dually phosphorylated ERK; assay type: cell-based, mouse; details: for Effect of inhibitor pretreatment on A9-stimulated ERK activation: A9 1 μM, 45 minutes; for ERK activation: dually phosphorylated ERK by immunoblotting
PKCζ = molecular target: T1, PKCζ (Homo sapiens, UniProt Q05513); details: read-out: IC50 for activation of PKCζ; cited from earlier work
T1 sequence (Q05513 1-592): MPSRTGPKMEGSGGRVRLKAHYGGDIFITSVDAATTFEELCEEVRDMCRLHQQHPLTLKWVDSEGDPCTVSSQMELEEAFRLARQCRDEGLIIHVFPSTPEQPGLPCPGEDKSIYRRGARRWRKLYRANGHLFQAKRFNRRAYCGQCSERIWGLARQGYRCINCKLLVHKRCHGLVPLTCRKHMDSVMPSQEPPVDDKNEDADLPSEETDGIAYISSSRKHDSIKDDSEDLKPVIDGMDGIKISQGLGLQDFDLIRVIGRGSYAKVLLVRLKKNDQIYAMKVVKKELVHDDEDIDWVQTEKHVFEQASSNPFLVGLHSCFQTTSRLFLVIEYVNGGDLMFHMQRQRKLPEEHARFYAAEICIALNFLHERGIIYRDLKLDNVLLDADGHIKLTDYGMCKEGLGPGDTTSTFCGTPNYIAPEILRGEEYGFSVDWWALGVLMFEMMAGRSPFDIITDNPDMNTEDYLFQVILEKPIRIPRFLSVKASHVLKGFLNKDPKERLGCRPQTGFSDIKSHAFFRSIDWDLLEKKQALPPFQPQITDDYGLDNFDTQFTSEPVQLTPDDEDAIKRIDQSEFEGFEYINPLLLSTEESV

SH-SY5Y cells = assay: Neurite length in NGF-treated SH-SY5Y neuroblastoma cells; assay type: cell-based, human
Method: Analysis of neurite length in SH-SY5Y neuroblastoma cells: SH-SY5Y neuroblastoma cells develop axonal-like processes on treatment with NGF. For analysis of process length, cells (20 fields/well) are randomly photographed at 96 and 168 hours. Neurite lengths are measured on photographic prints using a Houston Instrument HI-PAD digitizing tablet connected to a computer with appropriate software (Bioquant IV); only processes more than twice the cell body length are measured. Data from identically treated wells are combined. […] Histograms are compared using a Mann-Whitney U test (α=0.05), which makes no assumptions about the shape of the distribution.
As disclosed herein, high and sustained ERK activation induces neurite growth in […] neuroblastoma cells and protects neuronal cells from neurotoxins. To test this, SH-SY5Y human neuroblastoma cells were used, which can be induced into neuron-like phenotype by NGF treatment. This is an established method for measuring neurite growth-promoting activity in vitro in Dr. Gold's lab (Gold et al., Neurosignals. 13:122-129, 2004; Gold et al., Exp. Neurol. 147:269-278, 1997). […] Representative micrographs at 168 hours for vehicle (control), NGF (10 ng/ml), and NGF (10 ng/ml) plus A9 (100 nM) are shown in FIG. 5B.

ERK [2] = details: NS20Y cells; previous study; cited from earlier work

| Compound | Effect of inhibitor pretreatment on A9-stimulated ERK activation (ERK [1]) | ERK activation (ERK [1]) | also measured |
| --- | --- | --- | --- |
| N#CC(C#N)=Cc1cc(O)c(O)c(O)c1 [AG82] | did not prevent the effect of A9 | did not stimulate ERK | – |
| N#CC(=Cc1ccc2[nH]ccc2c1)C(N)=C(C#N)C#N [AG370] | – | moderate stimulation of ERK; also recorded: little or no effect | – |
| CC(C)(C)c1cc(/C=C(\C#N)C(N)=S)cc(C(C)(C)C)c1O [AG879] | – | little or no effect | ERK stimulation (ERK [1]; at 0.1 μM): moderate stimulation of ERK; ERK stimulation (ERK [1]; at 1 μM): showed no effect |
| Cc1cc2ncc(-c3ccccc3)nc2cc1C [AG1295] | – | did not stimulate ERK; also recorded: little or no effect | – |
| CN(C)CCCn1cc(C2=C(c3c[nH]c4ccccc34)C(=O)NC2=O)c2ccccc21 [BisI, bisindolylmaleimide I] | failed to prevent A9-stimulated ERK activity | – | pIC50 (PKCζ): 5.24 |
| COc1cccc(-c2cc(=O)c3ccccc3o2)c1N [PD98059, reference compound] | prevented A9 from stimulating ERK activation | – | Effect of MEK inhibitor on A9-induced neurite outgrowth (SH-SY5Y cells; SH-SY5Y cells): did inhibit A9-induced neurite outgrowth |
| CC(C)(C)n1nc(-c2ccc(Cl)cc2)c2c(N)ncnc21 [PP2] | failed to prevent A9-stimulated ERK activity | – | Block of ERK activation induced by quinpirole (ERK [2]): block ERK activation induced by quinpirole |
| CN[C@@H]1C[C@H]2O[C@@](C)([C@@H]1OC)n1c3ccccc3c3c4c(c5c6ccccc6n2c5c31)C(=O)NC4 [stauosporine] | prevented A9 from stimulating ERK activation | – | – |
| NGF: nerve growth factor | – | – | Development of axonal-like processes (SH-SY5Y cells; SH-SY5Y, NGF 10 ng/ml alone): developed long axonal-like processes |
